Data reported in patent publication US20200072837A1, “METHODS FOR PREVENTING, MODULATING AND/OR REDUCING CARDIOVASCULAR DISEASE” (OP-T LLC, priority 2018, published 2020).

What was measured:
ApoE-/- mice [1] = experiment: Atherosclerotic changes in ApoE-/- mice on high fat diet (en-face Sudan IV, Paigen method, trichrome); format: in vivo, mouse
Description: ApoE−/− mice were fed a high fat diet for 16 weeks. Mice were randomly assigned to receive dose of 1 mg/kg of KGYY6 (6-mer—SEQ ID NO:4) by IV tail injection, once a week for a period of 4 weeks. Control mice received vehicle only. Atherosclerosis was investigated by several methods. […] FIG. 28A is an image of KGYY6 treated aortic en-face Sudan IV staining and FIG. 28B is an image of control (untreated) aortic en-face Sudan staining.
Further, measurement of plaque area and morphology was performed using the Paigen method. This method obtains sequential 5 um aortic cross sections from the aortic root beginning at the valve leaflets into the ascending aorta. At 50 um intervals, slides are stained after which the area of atherosclerotic lesion is measured. Individual plaque area measurements are plotted against the micrometer intervals and a curve is established, with the area under the curve (AUC) giving the total volume of plaque.
ApoE−/−mice (n=16, 4 male and 4 female per group), fed a 60% high fat diet (Research Diets) for 16 weeks. 8 mice were injected with 1 mg/kg KGYY6 and […] with vehicle alone. Glucose tolerance testing (GTT) was performed by fasting 6 hours, followed by intraperitoneal injection of 1 g/kg body weight glucose in water. Both blood glucose and serum insulin were measured at 0, 15 min, 30 min, 60 min and 2 hours.

ApoE-/- mice [2] = experiment: LDL cholesterol in ApoE-/- mice; format: in vivo, mouse; conditions: 1 mg/kg IV once a week for 4 weeks, treated versus untreated
Description: In this study, six ApoE−/− mice received a normal chow diet from 0 to 20 weeks of age. At 20 weeks of age, three mice were randomly assigned to receive dose of 1 mg/kg of KGYY6 (6-mer—SEQ ID NO:4) by IV tail injection, once a week for a period of 4 weeks. Control mice received vehicle only.

[3] = system: CD3+CD4+CD40+ splenic cells (Th40 cells); experiment: In vitro cytokine production of splenic Th40 cells, flow cytometry; format: cell-based, mouse; conditions: splenic lymphocytes of ApoE and C57BL/6 mice, overnight with varying concentrations of peptide
Description: Spleens from ApoE mice and C57BL/6 mice were processed for lymphocytes. ApoE−/− and C57BL/6 mice were fed a 60% high fat diet (research diet) for 1 week. Splenic lymphocytes were treated with 6-mer in vitro for 24 hours. Cells were placed in media overnight in the presence of varying concentrations of 6-mer peptides. The following morning, Brefeldin A was administered for 4 hours. All cells were stained for CD3, CD4, CD40 (Th40 cells) and measured by use of flow cytometry for their production of IL2, INFγ, and IL17a.
Spleens from ApoE mice and C57BL/6 mice were processed for lymphocytes, placed in media overnight in the presence of varying concentrations of KGYY6 peptide. BrefeldinA was administered for four hours.

NOD mice [4] = experiment: Development of diabetes in NOD mice treated with CD154 peptides; format: in vivo, mouse; conditions: weekly iv injection from 6 weeks of age, diabetic = blood glucose above 250 mg/dL on 3 consecutive measures
Description: (§1) Peptides were designed based on the amino acid sequence of mouse CD154 protein (SEQ ID NO:1) in the SwissPro database. […] Weekly after the initial injection, another 100 ug of peptide (or 100 ul of saline in the case of the Control mice) was injected into the tail vein. At 10 weeks of age, mice were monitored for diabetes, as indicated by a blood glucose level greater than 250 mg/dL for three consecutive days. During this time, blood was also taken from the tail vein, or by sub-mandibular venal puncture, and the level of CD4+ and CD8+ cells determined by flow cytometry using antibodies for CD4 protein and CD8 protein.
NOD mice at 6 weeks of age were injected weekly iv with 25 ug (1 mg/kg) of each peptide through 45 weeks. Each cohort included 10 animals. Blood glucoses were measured and levels at 250 mg/dl or higher for 3 consecutive measures were considered diabetic. […] (This is showing in FIG. 1).

blood cells = experiment: Binding of biotin-conjugated 15-mer peptide to whole blood cells of type-I diabetic and control subjects; set-up: species or system human; conditions: type-I diabetes patients versus non-diabetic controls, absorbance at 405 nm
Description: 1 ml of whole blood was obtained from each individual and incubated with biotin-conjugated, 15-mer peptide. The cells were then exposed to horseradish peroxidase (HRP)-avidin, washed and the absorbance at 405 nm determined using a spectrophotometer.

B cells = experiment: Binding of FITC-labeled 15-mer peptide to B cells, flow cytometry; set-up: species or system mouse; conditions: B cells from spleens of NOD mice, 90% CD40 positive
Description: B cells were isolated from the spleens of NOD mice. Sorted MHC-II+ cells were purified from total lymphocytes. Cells were stained with FITC-labeled 15 mer peptide, anti-CD40, and B cell markers CD19 and CD21. MHC-II+ cells were gated for CD19+ and CD21+ and then 15-mer peptide versus CD40 antibody was measured.

ApoE deficient mice = experiment: Atherosclerosis in ApoE deficient mice on normal chow, aortic arch analysis; format: in vivo, mouse
Description: ApoE deficient mice on a normal chow diet were selected to receive a dose of 1 mg/kg of the 15-mer peptide (SEQ ID NO: 7) by IV tail injection, three times a week over a period of […], beginning at 9 weeks of age and also utilized a control. At 25 weeks, the animals were euthanized, weighed, and then had blood, spleen, and pancreas removed for analysis. The subjects were then perfused through cardiac puncture with 4% paraformaldehyde. Aortic arches were dissected, dehydrated in sucrose gradient and then flash frozen.
FIG. 17 provides an example of the lesser curvature of the aortic arch, defined proximally from the aortic outflow (AO). Of the segments seen in the trichrome stain, an intimal distance of […] was measured distally. The aortic-arch wall area subtended by this 2.5 mm stretch of the intima was calculated for each section of all mice, with maximal area of the inner-aortic-arch wall of each mouse used to compute averages per group. The luminal surface (L), aortic arch (AO), and innominate artery (I) are labelled in this FIG. 17.
Plaque was subdivided based on morphology of early lesions (observable as fatty streaks containing macrophage derived foam cells with varying degrees of lipid accumulation) compared with more advanced fibroatheromas (containing varying degrees of lipid or necrotic core and fibrous caps). All plaque within the designated 2.5 mm segment were included.

NOD mice [5] = experiment: Reversal of hyperglycemia in already diabetic NOD mice; format: in vivo, mouse
Description: Six mice from that had received the 6-mer peptide in Example 1, and that had subsequently developed diabetes, were injected intravenously with 100 ug of the 15-mer peptide. These mice were then given weekly injections of the 15-mer peptide into their tail veins, and their blood glucose levels monitored twice-weekly. The 15-mer peptide was administered for a total of ten weeks, after which the treatment was stopped.
(§2) At the onset of diabetes, six NOD mice were injected with 100 ug/ml of the 15-mer peptide (SEQ ID NO:9), resulting in the reversal of hyperglycemia in 80% of the recipients. Six weeks after reversal of hyperglycemia, mice were sacrificed and the pancreas removed for analysis. The pancreas was fixed, sectioned and then stained using an aldehyde/fuschsin stain that allows detection of insulin granules. Granulation of the tissue was scored as follows: 4=completely granulated; 3=75% of islet granulated; 2=50% of islet granulated, and peri-insulitis; 1=25% of islet granulated; 0=no insulin granules detected.

NOD mice [6] = experiment: CD4/CD8 ratio in blood of peptide-treated NOD mice by flow cytometry; format: in vivo, mouse
Description: as §1

CD40+ T-cells = experiment: Binding of FITC-labeled 15-mer peptide to Th40 cells, flow cytometry; set-up: species or system mouse; conditions: lymphocytes of 9 week old NOD mice
Description: Total lymphocytes were isolated from 9 week old NOD mice. The lymphocytes were incubated with […], anti-CD8, and an FITC-labeled 15-mer peptide, and then analyzed by flow cytometry. Cells were gated for CD4 (both CD4hi and CD4lo populations were included) and CD4 versus the 15-mer peptide.

[7] = Clot study in whole human blood; conditions: dosing levels similar to murine studies
Description: Whole human blood was administered the peptide in accordance with similar dosing levels to those used for murine studies.

ApoE-/- mice [8] = experiment: Existing atherosclerotic disease in ApoE-/- mice, 4 weeks of treatment, plaque morphology; format: in vivo, mouse
Description: In this study, six ApoE−/− mice received a normal chow diet from 0 to 20 weeks of age. At 20 weeks of age, three mice were randomly assigned to receive dose of 1 mg/kg of KGYY15 (15-mer—SEQ ID NO:7) by IV tail injection, once a week for a period of 4 weeks. Control mice received vehicle only. After 4 weeks of treatment, animals were euthanized then perfused through cardiac puncture with 4% paraformaldehyde. Aortic arches were dissected in surcrose gradient and flash frozen. Approximately fifty, […] longitudinal sections were obtained per mouse. Slides were treated with trichrome stain and analyzed using cellSens software for measurements. Total plaque was measured including 2.5 mm lesser curvature and innominate artery.

NOD mice [9] = experiment: Insulin granulation of pancreas in NOD mice after reversal of hyperglycemia; format: in vivo, mouse; conditions: six weeks after reversal of hyperglycemia, versus irrelevant peptide
Description: as §2

[10] = trichrome staining, Image Pro Plus analysis
[11] = 1 mg/kg IV once a week for 4 weeks

KKGYYT [KGYY6]
lesion areas, en-face Sudan IV stain (ApoE-/- mice [1]; ApoE-/- mice, high fat diet 16 weeks, 1 mg/kg IV once a week for 4 weeks): significant reduction in lesion areas | plaque volume (area under the curve), Paigen method (ApoE-/- mice [1]; ApoE-/- mice, high fat diet, aortic root cross sections): reduction in plaque volume under the curve | plaque composition: collagen (ApoE-/- mice [1]; [10]): increased collagen | plaque composition: smooth muscle content (ApoE-/- mice [1]; [10]): reduced smooth muscle content | reduction in LDL cholesterol values (ApoE-/- mice [2]): > 50% | production of IFNg [3]: varying degrees of reduction | production of IL2 [3]: varying degrees of reduction | production of IL17a [3]: varying degrees of reduction | development / onset of diabetes (NOD mice [4]): prevents diabetes onset in NOD mice

VLQWAKKGYYTMK [13-mer]
development / onset of diabetes (NOD mice [4]): significant effects on the development of diabetes

VLQWAKKGYYTMKSN (VLQWAKKGYYTMKSK) [15-mer, 15-mer peptide from mouse CD154]
peptide binding activity of blood cells (blood cells): higher 15-mer peptide binding activity than cells from non-diabetic controls | B cells that bound the peptide (B cells): 8% | atherosclerosis (ApoE deficient mice; 1 mg/kg IV three times a week): abrogates atherosclerosis | total area of the 2.5 mm segment of the lesser curvature of the aortic arch (ApoE deficient mice; 1 mg/kg IV three times a week from 9 weeks of age): substantially reduced | total number of plaque (ApoE deficient mice; 1 mg/kg IV three times a week, plaque within 2.5 mm segment): significantly decreased | reversal of hyperglycemia (NOD mice [5]; already diabetic NOD mice, 100 ug iv weekly for ten weeks): can reverse hyperglycemia | return of hyperglycemia after cessation of the treatment (NOD mice [5]; diabetic NOD mice, treatment stopped after ten weeks): ≤ 7 weeks | recipients with reversal of hyperglycemia (NOD mice [5]; six NOD mice injected at onset of diabetes): 80% | compromise of the immune system as determined by the CD4/CD8 ratio (NOD mice [6]): did not result in compromise of the immune system | CD40+ T-cells that bind the peptide (CD40+ T-cells): 90% | clotting of whole human blood [7]: does not modify or change the clotting of whole human blood significantly outside of normally recognized levels | development / onset of diabetes (NOD mice [4]): prevented the onset of diabetes | development / onset of diabetes (NOD mice [4]; listed as KGYY15): prevents diabetes onset in NOD mice | average cap width (cap size) (ApoE-/- mice [8]; [11]): greater | average core width (core size/plaque size) (ApoE-/- mice [8]; [11]): decreased | cap to core ratio of advanced plaques (ApoE-/- mice [8]; [11]): reduced | number of individual early plaques and advanced plaques (ApoE-/- mice [8]; 1 mg/kg IV once a week for 4 weeks from 20 weeks of age): reduced | insulin granulation of the pancreas (NOD mice [9]): preserved insulin granules in the majority of the mice
